# Assay results from patent US11932633B2, “KRas G12C inhibitors” (Mirati Therapeutics, Inc., priority 2018, dated 2024).
# Structures can show the parent of a compound that is named as a salt.
# Legend:
# KRas G12C [1] = target: T1, KRas G12C (Homo sapiens, UniProt P01116, C118S/C51S/C80L/G12C); assay: KRas G12C Modification Assay (LCMS detection of covalent adduct); assay type: binding; conditions: 5 μM concentration for 3 hours
# T1 construct: GDP-loaded K-Ras (1-169) G12C, C51S, C80L, C118S
# Description: This Example illustrates that exemplary compounds of the present invention covalently bind to KRas G12C using a LCMS assay to detect a covalent adduct of the exemplary compound and KRAS G12C.
# The protein concentration of GDP-loaded K-Ras (1-169) G12C, C51S, C80L, C118S and GTP-loaded K-Ras (1-169) G12C, C51S, C80L, C118S, Q61H was adjusted to 2 μM in K-Ras Assay Buffer (25 mM HEPES, 150 mM NaCl, 5 mM MgCl2, and 10 mM Octyl β-glucopyranoside at pH 7.5). A 10 μL aliquot of each protein solution was transferred to a 384 well microtiter plate. Initial compound stocks were generated at fifty times their desired final assay concentration in DMSO.
# Exemplary compounds of formula (I) were diluted 25-fold into K-Ras Assay Buffer to a final of two times their final concentration. A 10 μL aliquot of each diluted compound solution was added to each of the protein solutions in the microtiter plate to initiate reaction. Typical final compound concentrations were 3.0, 5.0 and 25.0 μM. At each time point, the reactions were quenched with 20 μL of a 25 mM acetic acid solution. Usual assay endpoints were 15, 180 and 1440 minutes. Once all reactions were quenched, the plates were heat sealed and the samples were injected into a LC/MS system for data acquisition.
# Data collection took place on an Agilent 6520 Q-TOF Accurate Mass Spectrometer. Samples were injected in their liquid phase onto a C-3 reverse phase column to remove assay buffer and prepare the samples for mass spectrometer. The proteins were eluted from the column using an acetonitrile gradient and fed directly into the mass analyzer. Initial raw data analysis took place in Agilent MassHunter software immediately post data acquisition.
# Raw data analysis of the intact protein was exclusively a deconvolution of the multiple charge states of each protein in solution using a maximum entropy deconvolution provided in Mass Hunter. To minimize complexity, only the data over limited mass ranges were considered for analysis, with a minimum of one Dalton mass step intervals. The heights of all masses identified during raw data analysis were exported to be further analyzed in Spotfire® data analysis software.
# Final data analysis was a multistep process in the Spotfire® data analysis software package. Briefly, each protein mass was calculated as a percent of the total signal of that sample, that percentage was normalized to the percentage of signal of the protein in the absence of reactive compounds. Those normalized signals were reported as normalized percent of control (POC). […] Key: N.D. is not determined.
# KRas G12C [2] = target: T2, KRas G12C (Homo sapiens, UniProt P01116, G12C); assay: Cellular inhibition of KRas G12C measured by Phospho-ERK in NCI-11358 cells; assay type: cell-based; conditions: NCI-11358 cells (ATCC CRL-5807), 3 hours; read-out: Inhibition (IC50, pERK (Thr202/Tyr204) signal normalized with GAPDH)
# T2 construct: NCI-11358 cells (ATCC CRL-5807) express KRas G12C; host or cells: NCI-H358
# Description: The cellular inhibition of KRAs G12C by exemplary compounds of the present invention was determined by measuring the amount of a downstream marker of KRas activity, phosphorylated ERK (“Phospho-ERK”).
# NCI-11358 cells (ATCC CRL-5807) express KRas G12C and were grown in RPMI medium supplemented with 10% fetal bovine serum, penicillin/streptomycin and 10 mM HEPES. Cells were plated in poly-D-Lysine coated 96-well plates at a concentration of 50,000 cells/well and allowed to attach for 8-12 hours. Diluted compounds were then added at a final concentration of 0.5% DMSO. After 3 hours, the medium was removed, 150 μL of 4% formaldehyde was added and the plates were incubated for 20 minutes. The plates were washed with PBS, and permeabilized using 150 μL of ice cold 100% methanol for 10 minutes. Non-specific antibody binding to the plates was blocked using 100 μL Licor Blocking Buffer (Li-Cor Biotechnology, Lincoln NE) for 1 hour at room temperature. Positive control samples and samples lacking cells were parallel processed with test samples as standards.
# The amount Phospho-ERK was determined using an antibody specific for the phosphorylated form of ERK and compared to the amount of GAPDH. Primary antibodies used for detection were added as follows: Phospho-ERK (Cell Signaling cs9101) diluted 1:500 and GAPDH (Millipore MAB374) diluted 1:5000 in Licor block+0.05% Tween 20. The plates were incubated for 2 hours at room temperature. The plates were washed with PBS+0.05% Tween 20.
# Secondary antibodies used to visualize primary antibodies were added as follows: Anti-rabbit-680 diluted 1:1000 and Anti-mouse-800 diluted 1:1000 in Licor Block+0.05% Tween 20 and incubated for 1 hour at room temperature. The plates were washed with PBS+0.05% Tween 20. A 100 μL aliquot of PBS was added to each well and the plates were read on a LICOR AERIUS plate reader.
# The pERK (Thr202/Tyr204) signal was normalized with the GAPDH signal and percent of DMSO control values were calculated. IC50 values were generated using a 4 parameter fit of the dose response curve. Key: “A”: ≤1 μM, “B”>1 μM and N.D.=not determined.
"POC (normalized percent of control, covalent modification of KRas G12C) (KRas G12C [1])",IC50 (KRas G12C [2]),"POC (normalized percent of control, covalent modification of KRas G12C) (KRas G12C [1]; 5 µM)",SMILES
91% of control,≤ 1000 nM,–,"C=CC(=O)N1CC(CN2C(=O)C(C3CCN(C)CC3)Oc3cc(-c4cc(O)cc5ccccc45)c(Cl)cc32)C1 (stereo not drawn) [Example 3, 4-((1-acryloylazetidin-3-yl)methyl)-6-chloro-7-(3-hydroxynaphthalen-1-yl)-2-(1-methylpiperidin-4-yl)-2H-benzo[b][1,4]oxazin-3(4H)-one]"
93% of control,≤ 1000 nM,–,"C=CC(=O)N1CC(CN2C(=O)C(CN3CC[C@@H](OC)C3)Oc3cc(-c4cc(O)cc5ccccc45)c(Cl)cc32)C1 (stereo partly drawn) [Example 28, 4-((1-acryloylazetidin-3-yl)methyl)-6-chloro-7-(3-hydroxynaphthalen-1-yl)-2-(((R)-3-methoxypyrrolidin-1-yl)methyl)-2H-benzo[b][1,4]oxazin-3(4H)-one]"
94% of control,> 1000 nM,–,"C=CC(=O)N1CC(CN2C(=O)C(CC(C)C)Oc3cc(-c4cc(O)cc5ccccc45)c(Cl)cc32)C1 (stereo not drawn) [Example 2, 4-((1-acryloylazetidin-3-yl)methyl)-6-chloro-7-(3-hydroxynaphthalen-1-yl)-2-isobutyl-2H-benzo[b][1,4]oxazin-3(4H)-one]"
25% of control,> 1000 nM,–,"C=CC(=O)N1CC(CN2C(=O)COc3cc(-c4onc5ccccc45)c(Cl)cc32)C1 [Example 29, 4-((1-acryloylazetidin-3-yl)methyl)-7-(benzo[c]isoxazol-3-yl)-6-chloro-2H-benzo[b][1,4]oxazin-3(4H)-one]"
–,> 1000 nM,53% of control,"C=CC(=O)N1CC(CN2C(=O)COc3cc(-c4c(C)ccc5[nH]ncc45)c(Cl)cc32)C1 (single isomer, unassigned) [Example 10]"
34% of control,> 1000 nM,–,"C=CC(=O)N1CC(C(C)N2C(=O)COc3cc(-c4cc(O)cc5ccccc45)c(Cl)cc32)C1 (stereo not drawn) [Example 23, 4-(1-(1-acryloylazetidin-3-yl)ethyl)-6-chloro-7-(3-hydroxynaphthalen-1-yl)-2H-benzo[b][1,4]oxazin-3(4H)-one]"
93% of control,≤ 1000 nM,–,"C=CC(=O)N1CC(CN2C(=O)C(CCCN3CCOCC3)Oc3cc(-c4cc(O)cc5ccccc45)c(Cl)cc32)C1 (stereo not drawn) [Example 25, 4-((1-acryloylazetidin-3-yl)methyl)-6-chloro-7-(3-hydroxynaphthalen-1-yl)-2-(3-morpholinopropyl)-2H-benzo[b][1,4]oxazin-3(4H)-one 2,2,2-trifluoroacetate]"
93% of control,≤ 1000 nM,–,"C=CC(=O)N1CC(CN2C(=O)[C@H](CCN3CCOCC3)Oc3cc(-c4cc(O)cc5ccccc45)c(Cl)cc32)C1 [Example 34, (S)-4-((1-acryloylazetidin-3-yl)methyl)-6-chloro-7-(3-hydroxynaphthalen-1-yl)-2-(2-morpholinoethyl)-2H-benzo[b][1,4]oxazin-3(4H)-one]"
104% of control,≤ 1000 nM,–,"C=CC(=O)N1CC(CN2C(=O)COc3cc(-c4cc(O)cc5ccccc45)c(Cl)cc32)C1 [Example 1, 4-((1-acryloylazetidin-3-yl)methyl)-6-chloro-7-(3-hydroxynaphthalen-1-yl)-2H-benzo[b][1,4]oxazin-3(4H)-one]"
99% of control,≤ 1000 nM,–,"C=CC(=O)N1CC(CN2C(=O)C(CC3CCN(C)CC3)Oc3cc(-c4cc(O)cc5ccccc45)c(Cl)cc32)C1 (stereo not drawn) [Example 20, 4-((1-acryloylazetidin-3-yl)methyl)-6-chloro-7-(3-hydroxynaphthalen-1-yl)-2-((1-methylpiperidin-4-yl)methyl)-2H-benzo[b][1,4]oxazin-3(4H)-one]"
93% of control,≤ 1000 nM,–,"C=CC(=O)N1CC(CN2C(=O)C(CN3CC[C@H](OC)C3)Oc3cc(-c4cc(O)cc5ccccc45)c(Cl)cc32)C1 (stereo partly drawn) [Example 30, 4-((1-acryloylazetidin-3-yl)methyl)-6-chloro-7-(3-hydroxynaphthalen-1-yl)-2-(((S)-3-methoxypyrrolidin-1-yl)methyl)-2H-benzo[b][1,4]oxazin-3(4H)-one]"
97% of control,≤ 1000 nM,–,"C=CC(=O)N1CC(CN2C(=O)C(CCCN3CCCC3)Oc3cc(-c4cc(O)cc5ccccc45)c(Cl)cc32)C1 (stereo not drawn) [Example 22, 4-((1-acryloylazetidin-3-yl)methyl)-6-chloro-7-(3-hydroxynaphthalen-1-yl)-2-(3-(pyrrolidin-1-yl)propyl)-2H-benzo[b][1,4]oxazin-3(4H)-one 2,2,2-trifluoroacetate]"
100% of control,> 1000 nM,–,"C=CC(=O)N1CC(CN2C(=O)COc3c2cc(Cl)c(-c2cc(O)cc4ccccc24)c3F)C1 [Example 16, 4-((1-acryloylazetidin-3-yl)methyl)-6-chloro-8-fluoro-7-(3-hydroxynaphthalen-1-yl)-2H-benzo[b][1,4]oxazin-3(4H)-one]"
97% of control,> 1000 nM,–,"C=CC(=O)N1CC(CN2C(=O)COc3cc(-c4c(C)ccc5[nH]cnc45)c(Cl)cc32)C1 [Example 15, 4-((1-acryloylazetidin-3-yl)methyl)-6-chloro-7-(5-methyl-1H-benzo[d]imidazol-4-yl)-2H-benzo[b][1,4]oxazin-3(4H)-one trifluoroacetate salt]"
102% of control,> 1000 nM,–,"C=CC(=O)N1CC(CN2C(=O)CSc3cc(-c4cc(O)cc5ccccc45)ccc32)C1 [Example 14, 4-((1-acryloylazetidin-3-yl)methyl)-7-(3-hydroxynaphthalen-1-yl)-2H-benzo[b][1,4]thiazin-3(4H)-one]"
–,> 1000 nM,27% of control,"C=CC(=O)N1CC(CN2C(=O)[C@H](CCN(C)C)Oc3cc(-c4c(C)ccc5[nH]ncc45)c(Cl)cc32)C1 (single isomer, unassigned) [Example 36]"
–,≤ 1000 nM,86% of control,"C=CC(=O)N1CC(CN2C(=O)[C@H](CCN(C)C)Oc3cc(-c4c(C)ccc5[nH]ncc45)c(Cl)cc32)C1 (single isomer, unassigned) [Example 35]"

SMILES,"POC (normalized percent of control, covalent modification of KRas G12C) (KRas G12C [1])",IC50 (KRas G12C [2]),"POC (normalized percent of control, covalent modification of KRas G12C) (KRas G12C [1]; 5 µM)"
"C=CC(=O)N1CC(CN2C(=O)COc3cc(-c4ccccc4C(F)(F)F)c(Cl)cc32)C1 [Example 37, 4-((1-acryloylazetidin-3-yl)methyl)-6-chloro-7-(2-(trifluoromethyl)phenyl)-2H-benzo[b][1,4]oxazin-3(4H)-one]",66% of control,> 1000 nM,–
